Paper PMC6792352, “Limited Chemical Structural Diversity Found to Modulate Thyroid Hormone Receptor in the Tox21 Chemical Library” (Environmental Health Perspectives, 2019)
Structures can show the parent of a compound that is named as a salt.

Experiment: in vitro
Details: rat, gh3-tre-luc cells, AC50 (uM) modified / 1000

SMILES	CC50 at 24 h [µM]
S=C(S)NCCNC(=S)S [Nabam-sodium]	> 90
CC(C)CCOC(=O)CC(C)C [3-Methylbutyl 3-methylbutanoate]	> 90
Cc1cccc(C)c1Nc1ncccc1C(=O)O [Metanixin]	> 50
CC[C@H](C)[C@H]1O[C@]2(CC[C@@H]1C)C[C@@H]1C[C@@H](C/C=C(\C)[C@@H](O[C@H]3C[C@H](OC)[C@@H](O[C@H]4C[C@H](OC)[C@@H](O)[C@H](C)O4)[C@H](C)O3)[C@@H](C)/C=C/C=C3\CO[C@@H]4[C@H](O)C(C)=C[C@@H](C(=O)O1)[C@]34O)O2 [Ivermectin B1a]	2.85
CC(C)=CCC/C(C)=C/CC/C(C)=C/CC/C=C(\C)CC/C=C(\C)CCC=C(C)C [(E)-Squalene]	> 50
CCCCCCCCCCCCCCCCCCCCCCO [1-Docosanol]	> 50
Nc1cnn([C@@H]2O[C@H](CO)[C@@H](O)[C@H]2O)c(=O)n1 [6-Azacytidine]	> 90
O=C(O)CCCCCCCCCCC(=O)O [Dodecanedioic acid]	> 90
Fc1ccc(Br)cc1 [1-Bromo-4-fluorobenzene]	> 90
C=CCN=C=S [Allyl isothiocyanate]	> 90
Cc1cc(C)c(C)c(O)c1 [2,3,5-Trimethylphenol]	> 90
Clc1ccc(C(Cl)(Cl)Cl)cc1Cl [1,2-Dichloro-4-(trichloromethyl)benzene]	> 90
CCN(CC)CCn1c(=O)c(Cc2ccc(OC)cc2)nc2ccccc21 [Caroverine hydrochloride]	19.1
O=C1NC(=O)c2cc([N+](=O)[O-])ccc21 [4-Nitrophthalimide]	> 90
CCOC(=O)CC(=O)c1ccccc1 [Ethyl benzoylacetate]	> 90
CC(=O)Oc1ccc(C2(c3ccc(OC(C)=O)cc3)Oc3ccccc3NC2=O)cc1 [Bisoxatin acetate]	4.41
CCCCCCCCCCCCCCC(Br)C(=O)O (stereo not shown) [2-Bromohexadecanoic acid]	> 90
CCCCCc1cccc(=O)o1 [6-Pentyl-2H-pyran-2-one]	> 90
C(/C=C/C=C/Nc1ccccc1)=Nc1ccccc1 [N,N'-Penta-1,3-dien-1-yl-5-ylidenedianiline hydrochloride]	> 90
N#Cc1c(Cl)cccc1Cl [Dichlobenil]	> 90
CCCNC(C)(C)COC(=O)c1ccccc1 [Meprylcaine hydrochloride]	> 50
CC(C)COC(=O)CC(C(=O)OCC(C)C)S(=O)(=O)O (stereo not shown) [Sodium 1,4-diisobutyl sulfosuccinate]	> 90
CCC(=O)/C=C/c1ccc(OC)cc1 [1-(4-Methoxyphenyl)-1-pentene-3-one]	> 90

SMILES	CC50 at 24 h [µM]
CC(CC=O)CC(C)(C)C (stereo not shown) [3,5,5-Trimethylhexanal]	> 90
N#CC(CCc1ccc(Cl)cc1)(Cn1cncn1)c1ccccc1 (stereo not shown) [Fenbuconazole]	49.1
Cc1ccc(N(C)C)cc1 [N,N,4-Trimethylaniline]	> 90
CCCCCCCCOC(=O)c1ccccc1C(=O)OCCCCCCCC [Di-n-octyl phthalate]	> 90
C[C@H]1O[C@@H](n2cc(F)c(=O)[nH]c2=O)[C@H](O)[C@@H]1O [Doxifluridine]	> 50
C=CCCCCCCCC [1-Decene]	> 90
O=Cc1ccc(Cl)c([N+](=O)[O-])c1 [4-Chloro-3-nitrobenzaldehyde]	> 90
O=C1CC[C@H](C(=O)N2CCCCC2)N1 [Fasoracetam]	> 50
CCO[Si](CCCCl)(OCC)OCC [(3-Chloropropyl)(triethoxy)silane]	> 90
Cc1cc2nc(N)sc2cc1C [2-Amino-5,6-dimethylbenzothiazole]	> 90
COc1cc2c(cc1OC)[C@@H](c1ccccc1)CN(C)CC2 [Trepipam maleate]	> 50
CC1(C)C(=O)N(Br)C(=O)N1Br [1,3-Dibromo-5,5-dimethylhydantoin]	> 90
O=C1CCC(N2C(=O)c3ccccc3C2=O)C(=O)N1 (stereo not shown) [Thalidomide]	> 90
O=C(O)c1cc2ccccc2cc1O [3-Hydroxy-2-naphthoic acid]	> 90
COC(=O)Nc1nc2ccc([S+]([O-])c3ccccc3)cc2[nH]1 (stereo not shown) [Oxfendazole]	> 50
CCOC(=O)CC(=O)C(=O)OCC [Sodium diethyl oxaloacetate]	> 90
CCCCNCC [N-Ethyl-N-butylamine]	> 90
COc1cccc([C@@]2(O)CCCC[C@@H]2CN(C)C)c1 [Tramadol hydrochloride]	> 50
O=C(O)COCC(=O)O [Diglycolic acid]	> 90
CC(C)CC(C)Nc1ccc(Nc2ccccc2)cc1 (stereo not shown) [N-(1,3-Dimethylbutyl)-N'-phenyl-p-phenylenediamine]	39
Cc1cc(O)cc2c1O[C@](C)(CCC[C@H](C)CCC[C@H](C)CCCC(C)C)CC2 [D-delta-Tocopherol]	> 50
C[C@H](CCC(=O)O)[C@H]1CC[C@H]2[C@@H]3[C@H](O)C[C@@H]4C[C@H](O)CC[C@]4(C)[C@H]3C[C@H](O)[C@]12C [Cholic acid piperazine (1:1)]	> 50
Nc1cccc2c1CN(C1CCC(=O)NC1=O)C2=O (stereo not shown) [Lenalidomide]	> 50

SMILES	CC50 at 24 h [µM]
Oc1cc(O)c2c(c1)O[C@H](c1ccc(O)c(O)c1)[C@H](O)C2 [(-)-Epicatechin]	> 50
CC(C)(COC(=O)c1ccccc1)COC(=O)c1ccccc1 [Neopentyl glycol dibenzoate]	> 90
O=c1oc2ccccc2c(O)c1C(CC(O)c1ccc(-c2ccc(Br)cc2)cc1)c1ccccc1 (stereo not shown) [Bromadiolone]	> 90
CC(C)(C)c1ccc(OCC2CO2)cc1 (stereo not shown) [tert-Butyl phenyl glycidyl ether]	> 90
Oc1cc(Cl)cc(Cl)c1Cl [2,3,5-Trichlorophenol]	> 90
C=CC(N)CCC(=O)O (stereo not shown) [Vigabatrin]	> 50
Nc1ccc2c3c(cccc13)-c1ccccc1-2 [3-Aminofluoranthene]	> 90
O=C(O)Cn1c(=O)n(Cc2ccc(Br)cc2F)c(=O)c2ccc(Cl)cc21 [Zenarestat]	> 90
Nc1ccc(-c2ccc(F)cc2)cc1 [4'-Fluoro-4-aminodiphenyl]	> 90
O=C(O)[C@@H]1CCCN1 [Proline]	> 50
Oc1cc(Cl)c(Cl)c(Cl)c1 [3,4,5-Trichlorophenol]	29.9
COC(C(=O)O)c1ccccc1 (stereo not shown) [Methoxyphenylacetic acid]	> 90
Clc1cc(C(Cl)(Cl)Cl)cnc1Cl [2,3-Dichloro-5-(trichloromethyl)pyridine]	> 90
Nc1nc2nc[nH]c2c(=S)[nH]1 [6-Thioguanine]	> 90
CN[C@H](CC(C)C)C(=O)N[C@H]1C(=O)N[C@@H](CC(N)=O)C(=O)N[C@H]2C(=O)N[C@H]3C(=O)N[C@H](C(=O)N[C@H](C(=O)O)c4cc(O)cc(O)c4-c4cc3ccc4O)[C@H](O)c3ccc(c(Cl)c3)Oc3cc2cc(c3O[C@@H]2O[C@H](CO)[C@@H](O)[C@H](O)[C@H]2O[C@H]2C[C@](C)(N)[C@H](O)[C@H](C)O2)Oc2ccc(cc2Cl)[C@H]1O [Vancomycin hydrochloride]	> 50
Cc1cc(NC(=O)C(=O)O)cc(C)c1Oc1ccc(O)c2c1CCC2 [CP-634384]	> 90
CC(=O)O[C@H]1C[C@@H]2CC[C@@H]3[C@H](CC[C@@]4(C)[C@H]3C[C@H](N3CC[N+](C)(C)CC3)[C@@H]4OC(C)=O)[C@@]2(C)C[C@@H]1N1CC[N+](C)(C)CC1 [Pipecuronium bromide]	> 50
CS(=O)(=O)c1ccc([C@@H](O)[C@@H](CF)NC(=O)C(Cl)Cl)cc1 [Florfenicol]	> 20
CC#N [Acetonitrile]	> 90
CCCCCCCCCCCCSC#N [Lauryl thiocyanate]	> 90
COC(=O)c1cccnc1 [Methyl nicotinate]	> 90
CC(N)[C@]12C[C@H]3C[C@H](C[C@H](C3)C1)C2 (stereo partly shown) [Rimantadine hydrochloride]	> 50

Same assay, conditions: rat, gh3-tre-luc cells, AC50 (uM) modified / 1000, Tox21_110001=Tox21_111098; viability, 1 nM T3 present, 24 h

SMILES	CC50 at 24 h [µM]
Oc1c(Br)cc(Br)cc1Br [2,4,6-Tribromophenol]	> 50

Same assay, conditions: rat, gh3-tre-luc cells, AC50 (uM) modified / 1000, Tox21_110001=Tox21_111947; viability, 1 nM T3 present, 24 h

SMILES	CC50 at 24 h [µM]
CC(C)(C)OC(=O)c1ncn2c1[C@@H]1CCCN1C(=O)c1c(Br)cccc1-2 [Bretazenil]	> 50

Same assay, conditions: rat, gh3-tre-luc cells, AC50 (uM) modified / 1000, Tox21_110001=Tox21_113357; viability, 1 nM T3 present, 24 h

SMILES	CC50 at 24 h [µM]
CCOP(=S)(OCC)O/N=C(\C#N)c1ccccc1 [Phoxim]	> 50

Same assay, conditions: rat, gh3-tre-luc cells, AC50 (uM) modified / 1000, Tox21_110001=Tox21_200267; viability, 1 nM T3 present, 24 h

SMILES	CC50 at 24 h [µM]
O=NN1CCCCC1 [N-Nitrosopiperidine]	> 90

Same assay, conditions: rat, gh3-tre-luc cells, AC50 (uM) modified / 1000, Tox21_110001=Tox21_200382; viability, 1 nM T3 present, 24 h

SMILES	CC50 at 24 h [µM]
ClCC(Br)CBr (stereo not shown) [1,2-Dibromo-3-chloropropane]	> 90

Same assay, conditions: rat, gh3-tre-luc cells, AC50 (uM) modified / 1000, Tox21_110001=Tox21_201273; viability, 1 nM T3 present, 24 h

SMILES	CC50 at 24 h [µM]
Oc1c(Br)cc(Br)cc1Br [2,4,6-Tribromophenol]	> 90

Same assay, conditions: rat, gh3-tre-luc cells, AC50 (uM) modified / 1000, Tox21_110001=Tox21_201640; viability, 1 nM T3 present, 24 h

SMILES	CC50 at 24 h [µM]
C=C(C)CCl [3-Chloro-2-methylpropene]	> 90

Same assay, conditions: rat, gh3-tre-luc cells, AC50 (uM) modified / 1000, Tox21_110001=Tox21_202019; viability, 1 nM T3 present, 24 h

SMILES	CC50 at 24 h [µM]
CCOC(=O)c1ccccc1N [Ethyl anthranilate]	> 90

Same assay, conditions: rat, gh3-tre-luc cells, AC50 (uM) modified / 1000, Tox21_110001=Tox21_301580; viability, 1 nM T3 present, 24 h

SMILES	CC50 at 24 h [µM]
CCOP(=S)(OCC)O/N=C(\C#N)c1ccccc1 [Phoxim]	> 90

Same assay, conditions: rat, gh3-tre-luc cells, AC50 (uM) modified / 1000, Tox21_110001=Tox21_302279; viability, 1 nM T3 present, 24 h

SMILES	CC50 at 24 h [µM]
O=C(O)c1ccccc1C(=O)Nc1cccc2ccccc12 [Naptalam]	> 90

Same assay, conditions: rat, gh3-tre-luc cells, AC50 (uM) modified / 1000, Tox21_110001=Tox21_303609; viability, 1 nM T3 present, 24 h

SMILES	CC50 at 24 h [µM]
C=C(C)CCl [3-Chloro-2-methylpropene]	> 9
